# Test results: PubChem BioAssay (NCI)
# Several values for one entry are separate records, joined by “and”; a condition that tells them apart may be missing. Equal entries are not always repeated.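 96-well plates; 48 h exposure; 5 concentrations. Endpoints by linear interpolation between flanking doses. Not reached: highest tested concentration assigned. GI50 is the concentration that inhibits growth by half. At the TGI there is no net growth.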
# Experiments:
# Assay in all cases: growth of human tumour cells (NCI), 48 h
# TK-10 renal = test system: TK-10 renal
# DMS 273 small cell lung = test system: DMS 273 small cell lung
# DU-145 prostate = test system: DU-145 prostate
# MDA-MB-435 = test system: MDA-MB-435
# T-47D breast = test system: T-47D breast
# MCF7 breast = test system: MCF7 breast
# MDA-MB-231 breast = test system: MDA-MB-231 breast
# CCRF-CEM leukemia = test system: CCRF-CEM leukemia
# HCC-2998 colon = test system: HCC-2998 colon
# ACHN renal = test system: ACHN renal
# SR leukemia = test system: SR leukemia
# 786-0 renal = test system: 786-0 renal
# NCI-H522 lung = test system: NCI-H522 lung
# PC-3 prostate = test system: PC-3 prostate
# BT-549 breast = test system: BT-549 breast
# OVCAR-8 ovarian = test system: OVCAR-8 ovarian
# DMS 114 small cell lung = test system: DMS 114 small cell lung
# HS 578T breast = test system: HS 578T breast
# OVCAR-3 ovarian = test system: OVCAR-3 ovarian
# K-562 leukemia = test system: K-562 leukemia
# A498 renal = test system: A498 renal
# SN12C renal = test system: SN12C renal
# RXF 393 renal = test system: RXF 393 renal
# RPMI-8226 leukemia = test system: RPMI-8226 leukemia
# EKVX NSCLC = test system: EKVX NSCLC
# U251 CNS = test system: U251 CNS
# SK-MEL-28 melanoma = test system: SK-MEL-28 melanoma
# CAKI-1 renal = test system: CAKI-1 renal
# SK-MEL-5 melanoma = test system: SK-MEL-5 melanoma
# HCT-116 colon = test system: HCT-116 colon
# HL-60(TB) leukemia = test system: HL-60(TB) leukemia
# HOP-62 NSCLC = test system: HOP-62 NSCLC
# IGROV1 ovarian = test system: IGROV1 ovarian
# KM12 colon = test system: KM12 colon
# HOP-18 NSCLC = test system: HOP-18 NSCLC
# HT29 colon = test system: HT29 colon
# NCI-H460 lung = test system: NCI-H460 lung
# UACC-257 melanoma = test system: UACC-257 melanoma
# A549 NSCLC = test system: A549 NSCLC
# HCT-15 colon = test system: HCT-15 colon
# MOLT-4 leukemia = test system: MOLT-4 leukemia
# MALME-3M melanoma = test system: MALME-3M melanoma
# SF-268 CNS = test system: SF-268 CNS
# LOX IMVI melanoma = test system: LOX IMVI melanoma
# LXFL 529 NSCLC = test system: LXFL 529 NSCLC
# SK-MEL-2 melanoma = test system: SK-MEL-2 melanoma
# M14 melanoma = test system: M14 melanoma
# SNB-75 CNS = test system: SNB-75 CNS
# SF-295 CNS = test system: SF-295 CNS
# NCI-H226 lung = test system: NCI-H226 lung
# UO-31 renal = test system: UO-31 renal
# UACC-62 melanoma = test system: UACC-62 melanoma
# KM20L2 colon = test system: KM20L2 colon
# NCI-H23 lung = test system: NCI-H23 lung
# SK-OV-3 ovarian = test system: SK-OV-3 ovarian
# OVCAR-4 ovarian = test system: OVCAR-4 ovarian
# DLD-1 colon = test system: DLD-1 colon
# SW-620 colon = test system: SW-620 colon
# OVCAR-5 ovarian = test system: OVCAR-5 ovarian
# M19-MEL melanoma = test system: M19-MEL melanoma
# COLO 205 colon = test system: COLO 205 colon
# SNB-19 CNS = test system: SNB-19 CNS
compound,measurement,setting,value
NC(=O)c1cn(C2OC(CO)C(O)C2O)c2ncnc(N)c12 (stereo unspecified),TGI,TK-10 renal,70.7 nM
same,GI50,DMS 273 small cell lung,87.5 nM and 70 nM
same,TGI,DMS 273 small cell lung,118 nM [middle of 4 runs]
same,TGI,DU-145 prostate,48.7 nM
same,TGI,MDA-MB-435,36 nM
same,TGI,T-47D breast,52.3 nM
same,GI50,MCF7 breast,20.7 nM
same,TGI,MDA-MB-231 breast,102 nM
same,GI50,CCRF-CEM leukemia,5.59 nM and 24.6 nM and 6.27 nM
same,TGI,CCRF-CEM leukemia,148 nM and 75.9 nM
same,TGI,HCC-2998 colon,216 nM [middle of 4 runs]
same,TGI,ACHN renal,103 nM
same,GI50,SR leukemia,12.8 nM
same,TGI,SR leukemia,94.6 nM
same,TGI,786-0 renal,68.4 nM
same,GI50,NCI-H522 lung,48.2 nM and 21 nM
same,TGI,NCI-H522 lung,206 nM and 70.1 nM
same,TGI,PC-3 prostate,5.74 nM
same,TGI,BT-549 breast,38.9 nM
same,TGI,OVCAR-8 ovarian,383 nM and 904 nM and 92.1 nM
same,TGI,DMS 114 small cell lung,205 nM and 326 nM
same,TGI,HS 578T breast,75.8 nM
COC(=O)C(=O)C1(CCC(C)=O)c2ccccc2-c2ccccc21,TGI,OVCAR-3 ovarian,> 100000 nM
same,TGI,TK-10 renal,> 100000 nM
same,TGI,K-562 leukemia,> 100000 nM
same,TGI,DMS 273 small cell lung,> 100000 nM
same,TGI,A498 renal,> 100000 nM
same,TGI,SN12C renal,> 100000 nM
same,TGI,RXF 393 renal,> 100000 nM
same,TGI,RPMI-8226 leukemia,> 100000 nM
same,TGI,EKVX NSCLC,> 100000 nM
same,TGI,U251 CNS,> 100000 nM
same,TGI,SK-MEL-28 melanoma,> 100000 nM
same,TGI,CAKI-1 renal,> 100000 nM
same,TGI,SK-MEL-5 melanoma,> 100000 nM
same,TGI,HCT-116 colon,> 100000 nM
same,TGI,HL-60(TB) leukemia,> 100000 nM
same,TGI,CCRF-CEM leukemia,> 100000 nM
same,TGI,HOP-62 NSCLC,> 100000 nM
same,TGI,HCC-2998 colon,> 100000 nM
same,TGI,ACHN renal,> 100000 nM
same,TGI,SR leukemia,> 100000 nM
same,TGI,IGROV1 ovarian,> 100000 nM
same,TGI,KM12 colon,> 100000 nM
same,TGI,786-0 renal,> 100000 nM
same,TGI,HOP-18 NSCLC,> 100000 nM
same,TGI,NCI-H522 lung,> 100000 nM
same,TGI,HT29 colon,> 100000 nM
same,TGI,NCI-H460 lung,> 100000 nM
same,TGI,UACC-257 melanoma,> 100000 nM
same,TGI,A549 NSCLC,> 100000 nM
same,TGI,HCT-15 colon,> 100000 nM
same,TGI,MOLT-4 leukemia,> 100000 nM
same,TGI,MALME-3M melanoma,> 100000 nM
same,TGI,SF-268 CNS,> 100000 nM
same,TGI,LOX IMVI melanoma,> 100000 nM
same,TGI,LXFL 529 NSCLC,> 100000 nM
same,TGI,SK-MEL-2 melanoma,> 100000 nM
same,TGI,M14 melanoma,> 100000 nM
same,TGI,SNB-75 CNS,> 100000 nM
same,TGI,SF-295 CNS,> 100000 nM
same,TGI,OVCAR-8 ovarian,> 100000 nM
same,TGI,NCI-H226 lung,> 100000 nM
same,TGI,UO-31 renal,> 100000 nM
same,TGI,UACC-62 melanoma,> 100000 nM
same,TGI,KM20L2 colon,> 100000 nM
same,TGI,DMS 114 small cell lung,> 100000 nM
same,TGI,NCI-H23 lung,> 100000 nM
same,TGI,SK-OV-3 ovarian,> 100000 nM
same,TGI,OVCAR-4 ovarian,> 100000 nM
same,TGI,DLD-1 colon,> 100000 nM
same,TGI,SW-620 colon,> 100000 nM
same,TGI,OVCAR-5 ovarian,> 100000 nM
same,TGI,M19-MEL melanoma,> 100000 nM
same,TGI,COLO 205 colon,> 100000 nM
same,TGI,SNB-19 CNS,> 100000 nM
